Consider 5 compounds from paper PMC4891657, “Orexin 2 Receptor Antagonism is Sufficient to Promote NREM and REM Sleep from Mouse to Man” (Scientific Reports, 2016).

In experiment [1] the target is T1, OX2R (Rattus norvegicus, UniProt P56719).
T1 construct: expressed in transfected cells; host or cells: CHO-K1
T1 sequence (P56719 1-460): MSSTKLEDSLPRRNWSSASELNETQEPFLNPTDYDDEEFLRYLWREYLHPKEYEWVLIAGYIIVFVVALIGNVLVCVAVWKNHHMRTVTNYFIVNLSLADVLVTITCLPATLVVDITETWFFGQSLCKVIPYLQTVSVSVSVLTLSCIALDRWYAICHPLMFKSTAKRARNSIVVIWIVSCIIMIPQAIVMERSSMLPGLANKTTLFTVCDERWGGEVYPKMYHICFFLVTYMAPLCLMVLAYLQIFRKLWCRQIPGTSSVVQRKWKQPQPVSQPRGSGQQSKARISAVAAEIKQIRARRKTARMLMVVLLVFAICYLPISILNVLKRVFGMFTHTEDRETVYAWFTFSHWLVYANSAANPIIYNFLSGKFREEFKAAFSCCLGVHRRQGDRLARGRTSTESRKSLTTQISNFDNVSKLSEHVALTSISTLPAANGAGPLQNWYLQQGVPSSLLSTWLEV
Put plainly: Inhibition of orexin-peptide-A-induced calcium mobilization in CHO cells, rat OX2R. Type of experiment: cell-based. Conditions: for fold OX2R selectivity (Kb): OX1R Kb / OX2R Kb. The procedure: (§1) MK-1064 was evaluated for its ability to inhibit orexin-peptide-A-induced calcium mobilization in CHO cell lines separately expressing OX1R and OX2R from mice, rats, rabbits, dogs, rhesus monkeys and humans.
(§2) Binding and functional blockade of OX1R and OX2R with MK-1064 relative to other 2-SORAs and the DORA, MK-6096, were assessed using membranes from Chinese hamster ovary (CHO)-K1 cells (American Type Tissue Collection, Manassas, VA) transfected to express human, mouse, rat, rabbit, dog, or rhesus monkey OX1R or OX2R receptors, as described previously. The kinetics of binding to human OX2R was assessed by radioligand displacement on CHO-K1 cells expressing the receptor. […] The ON rate analysis was performed by presoaking GF/B filters in 0.3% polyethyleneimine (Sigma) using a Skatron 12-well cell harvester and cold buffer at the indicated time points after addition. For OFF rate determination, binding reactions were allowed to proceed to equilibrium and terminated with 1000x [Kd] of unlabeled antagonist and filtered as above at pre-determined time points. Ultima Gold^TM (PerkinElmer 6013327) scintillation cocktail was added to each filter disc and counted on a PerkinElmer TriCarb 2910 scintillation counter. Data were analyzed using GraphPad® Prism v 6.04 (San Diego, CA, USA). The KON rate was determined according to the equation, KON = (KOBS − KOFF)/[ligand].
In general terms: A change in cytosolic calcium serves as a functional read-out for many receptors and channels.

Experiment [2] has as its target T2, OX1R (Oryctolagus cuniculus, UniProt G1SPJ3).
T2 sequence (G1SPJ3 1-416): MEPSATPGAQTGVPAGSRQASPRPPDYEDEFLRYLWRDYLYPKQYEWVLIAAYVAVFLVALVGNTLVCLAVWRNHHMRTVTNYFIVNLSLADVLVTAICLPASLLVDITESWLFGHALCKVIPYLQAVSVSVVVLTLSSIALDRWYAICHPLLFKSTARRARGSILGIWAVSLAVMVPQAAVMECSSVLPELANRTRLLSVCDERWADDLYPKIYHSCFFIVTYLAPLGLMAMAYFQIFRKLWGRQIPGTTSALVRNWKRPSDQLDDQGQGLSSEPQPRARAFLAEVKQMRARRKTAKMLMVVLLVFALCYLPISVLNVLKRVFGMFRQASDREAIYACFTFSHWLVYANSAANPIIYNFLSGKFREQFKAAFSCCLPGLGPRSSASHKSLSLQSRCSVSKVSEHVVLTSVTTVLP
Nature of the experiment: Inhibition of orexin-peptide-A-induced calcium mobilization in CHO cells, rabbit OX1R. Type of experiment: cell-based. The procedure:
as §1, §2

Experiment [3] concerns the target T3, OX1R (Macaca mulatta, UniProt F7FE63).
T3 sequence (F7FE63 1-425): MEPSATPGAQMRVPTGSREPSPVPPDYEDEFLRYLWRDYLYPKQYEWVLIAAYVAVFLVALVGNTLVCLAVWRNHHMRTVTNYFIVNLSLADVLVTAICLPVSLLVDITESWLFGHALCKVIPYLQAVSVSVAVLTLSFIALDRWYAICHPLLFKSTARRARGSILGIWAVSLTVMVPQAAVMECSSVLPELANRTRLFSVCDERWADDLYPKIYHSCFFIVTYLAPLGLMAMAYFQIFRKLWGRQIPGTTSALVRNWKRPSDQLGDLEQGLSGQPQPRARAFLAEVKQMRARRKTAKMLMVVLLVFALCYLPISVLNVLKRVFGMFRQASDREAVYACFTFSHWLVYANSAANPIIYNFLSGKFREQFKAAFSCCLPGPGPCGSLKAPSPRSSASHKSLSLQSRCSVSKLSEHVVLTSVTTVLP
Nature of the experiment: Radio-ligand displacement binding, CHO-K1 membranes, rhesus OX1R. Conditions: read-out: OX1R affinity (Ki). Set-up: species or system rhesus monkey. As to the method: as §1, §2

The target of experiment [4] is T3, OX1R. Put plainly: Inhibition of orexin-peptide-A-induced calcium mobilization in CHO cells, rhesus OX1R. It counts as cell-based, rhesus monkey. As to the method: as §1, §2
In experiment [5] the target is T4, OX2R (Canis lupus familiaris, UniProt Q9TUP7).
T4 construct: expressed in transfected cells; host or cells: CHO-K1
T4 sequence (Q9TUP7 1-444): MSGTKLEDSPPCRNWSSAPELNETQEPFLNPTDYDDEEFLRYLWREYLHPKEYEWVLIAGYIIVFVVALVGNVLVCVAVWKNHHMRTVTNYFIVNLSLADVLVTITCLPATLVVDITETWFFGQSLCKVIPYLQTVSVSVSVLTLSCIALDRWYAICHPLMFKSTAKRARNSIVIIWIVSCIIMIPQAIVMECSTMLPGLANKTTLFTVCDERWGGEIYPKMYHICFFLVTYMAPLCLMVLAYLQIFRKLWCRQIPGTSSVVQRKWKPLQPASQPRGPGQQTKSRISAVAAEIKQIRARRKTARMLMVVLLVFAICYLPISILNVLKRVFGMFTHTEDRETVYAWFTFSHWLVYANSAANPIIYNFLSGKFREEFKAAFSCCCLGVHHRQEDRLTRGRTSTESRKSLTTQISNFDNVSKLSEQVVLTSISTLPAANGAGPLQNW
Put plainly: Radio-ligand displacement binding, CHO-K1 membranes, dog OX2R. Conditions: for fold OX2R selectivity (Ki): OX1R Ki / OX2R Ki; for Ki: read-out: OX2R affinity (Ki). As to the method: as §1, §2

The target in experiment [6] is T5, OX1R (Canis lupus familiaris, UniProt A0A8I3RSX8).
T5 sequence (A0A8I3RSX8 1-427): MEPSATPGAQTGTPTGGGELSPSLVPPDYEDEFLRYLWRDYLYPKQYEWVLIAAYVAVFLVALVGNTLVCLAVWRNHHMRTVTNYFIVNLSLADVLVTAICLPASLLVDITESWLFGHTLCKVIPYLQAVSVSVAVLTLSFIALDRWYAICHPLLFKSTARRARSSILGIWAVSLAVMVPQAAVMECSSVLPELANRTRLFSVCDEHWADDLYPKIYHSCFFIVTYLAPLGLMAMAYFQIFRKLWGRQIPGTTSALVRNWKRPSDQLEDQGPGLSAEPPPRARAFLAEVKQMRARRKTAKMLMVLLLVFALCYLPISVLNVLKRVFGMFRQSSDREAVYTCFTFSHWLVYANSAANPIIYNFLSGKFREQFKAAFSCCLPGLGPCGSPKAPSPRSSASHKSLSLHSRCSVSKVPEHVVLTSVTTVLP
Put plainly: Radio-ligand displacement binding, CHO-K1 membranes, dog OX1R. Conditions: read-out: OX1R affinity (Ki). The procedure: as §1, §2

In the case of `COc1ccc(CNC(=O)c2cc(-c3cncc(C)c3)ncc2-c2ccccc2)nc1OC` [2-SORA-7], the results for the Kb in experiment [1], in experiment [2] and in experiment [4] were 18 nM, 16800 nM and 3650 nM, respectively. Besides, the “fold OX2R selectivity (Kb)” value in experiment [1] is “[3238] fold”. Further, the Ki – broadly, a measure of affinity in units of concentration, obtained from inhibition or displacement – came out at 1340 nM in experiment [3], 0.63 nM in experiment [5] and 1800 nM in experiment [6]. Further, the “fold OX2R selectivity (Ki)” value in experiment [5] is “[2857] fold”.

`COc1ccc(CNC(=O)c2cc(-c3cc(Cl)cc(Cl)c3)cnc2-c2cccnc2)cc1OC` [2-SORA-18]: the results for the Kb in experiment [1], in experiment [2] and in experiment [4] were 21 nM, 496 nM and 141 nM, respectively. The “fold OX2R selectivity (Kb)” value in experiment [1] is “[50] fold”. Moreover, the Ki amounted to 132 nM in experiment [3], 0.11 nM in experiment [5] and 86 nM in experiment [6]. For the same compound, in experiment [5], the “fold OX2R selectivity (Ki)” value is “[782] fold”.

As to `COc1ccc(CNC(=O)c2cc(-c3cncc(Cl)c3)cnc2-c2ccccn2)nc1OC` [MK-1064, 5″-chloro-N-[(5,6-dimethoxypyridin-2-yl)methyl]-2,2′:5′, 3″-terpyridine-3′-carbo xamide], the Kb turned out to be 13 nM in experiment [1], 7370 nM in experiment [2] and 3370 nM in experiment [4]. Moreover, the “fold OX2R selectivity (Kb)” value in experiment [1] was “[613] fold”. Also, the Ki in experiment [3] was found to be 815 nM; in experiment [5], 0.78 nM; in experiment [6], 1300 nM. The “fold OX2R selectivity (Ki)” value in experiment [5] is “[1667] fold”.

Turning to `COc1ccc(CNC(=O)c2cc(-c3cncc(C)c3)ncc2-c2nccs2)nc1OC` [MK-3697], the Kb in experiment [1] came to 31 nM; in experiment [2] it was 32100 nM; in experiment [4], 21400 nM. In addition, the Ki worked out at 2180 nM in experiment [3], 1.1 nM in experiment [5] and 3100 nM in experiment [6].

In the case of `Cc1ccc(-c2ncccn2)c(C(=O)N2C[C@H](COc3ccc(F)cn3)CC[C@H]2C)c1` [MK-6096], the values for the Kb in experiment [1], in experiment [2] and in experiment [4] were 22 nM, 13 nM and 21 nM, respectively. In addition, the “fold OX2R selectivity (Kb)” value in experiment [1] is “[0.5] fold”. Besides, the figures for the Ki in experiment [3], in experiment [5] and in experiment [6] were 12.5 nM, 0.36 nM and 2.7 nM, respectively. For the same compound, the “fold OX2R selectivity (Ki)” value in experiment [5] was “[7.5] fold”.
